{"source": "patent US20170153257A1", "about": "“METHODS OF ESTIMATING LOGD OF TAGGED COMBINATORIAL LIBRARY COMPOUNDS” (DiCE Molecules SV, LLC, priority 2015, published 2017)", "note": "Entries after “also recorded” stand apart in the source; their conditions may differ. Residues, ends and D or L forms follow the SMILES beside them. {Stearyl} = n-C18 stearyl group added with a stearyl phosphoramidite"}
{"assay": "Gel mobility on standard agarose gel without vesicles", "assay_type": "physicochemical", "conditions": "ligand attached to 5′ end of DNA; 1.5% agarose, no vesicles; FIG. 1", "procedure": "Low melt agarose gels (standard 1× TBE, 1.5% agarose), without vesicles were prepared by conventional methods (Molecular Cloning: a Laboratory Manual, T. Maniatis, E. F. Fritsch & J. Sambrook (1982)).\nAfter the gels have solidified, samples are loaded, run at 100 volts, stained with ethidium bromide and photographed by standard methods (Molecular Cloning; Maniatis et al.; Cold Spring Harbor press, 1982)."}
{"compound": "Compound 1: stearyl (n-C18H37) group attached to 5′ end of DNA oligonucleotide X (SEQ. ID. No. 1) (DNA GCTCGTCGCATTCGGCACGC; DNA, 5' {Stearyl}, backbone and methylation of C not given here; further chemistry not fully specified)", "mobility on standard agarose gel": "modestly retarded"}
{"assay": "Gel mobility on agarose gel containing 0.9% CTAB/SOS vesicles", "assay_type": "physicochemical", "conditions": "ligand attached to 5′ end of DNA; 1.5% agarose, 0.9% (w/v) CTAB/SOS vesicles; relative to reference gels lacking vesicles; FIG. 2", "procedure": "Vesicles are prepared essentially as described by Pascoe et al., Electrophoresis 2003, 24: 4227-4240. Briefly, 0.45 gm of CTAB/SOS (CTAB=hexadecyltrimethylammonium bromide, Sigma catalogue #H9151; SOS=sodium octyl sulfate. Sigma catalogue #O4003)) at a ratio of 3:7 is dissolved in 1× TBE [Trisma-borate-EDTA electrophoresis buffer, Maniatis et al., p. 454] and heated to 50° C. in a water bath to assure dissolution. The solution is cooled overnight to room temperature and then filtered through a 0.2 micron filter. Vesicles prepared in this manner are reported to be stable for multiple days at room temperature.\nLow melting agarose (0.75 gm) is dissolved in 25 mL 1× TBE and placed in a water bath at 50° C. along with a separate tube of vesicles. After equilibrium is reached, the tubes are mixed in a preheated flask, gently swirled and poured into a standard horizontal mini-gel apparatus to provide a vesicle agarose gel ((standard 1× TBE, 1.5% agarose, 0.9%). […]\nFAM is 5′-6-FAM (Fluorescein). The 6-FAM moiety is comprised of a single isomer derivative of fluorescein and is the most commonly used fluorescent dye attachment for oligonucleotides and is compatible with most fluorescence detection equipment. It becomes protonated and has decreased fluorescence below pH 7; it is typically used in the pH range 7.5-8.5. […]"}
{"compound": "Compound 1: stearyl (n-C18H37) group attached to 5′ end of DNA oligonucleotide X (SEQ. ID. No. 1) (DNA GCTCGTCGCATTCGGCACGC; DNA, 5' {Stearyl}, backbone and methylation of C not given here; further chemistry not fully specified)", "mobility on agarose gel with vesicles": "greatly retard the mobility; also recorded: retarded"}
{"assay": "Reverse phase HPLC of steroids linked to a 220 base pair oligonucleotide (Agilent AdvanceBio Oligonucleotide column)", "assay_type": "physicochemical", "conditions": "220 base pair conjugates, acetonitrile/10 mM ammonium acetate gradient", "procedure": "HPLC purified 20 base pair single stranded oligomers operatively linked to alkyl or steroid ligands were transformed into a double stranded 220 base pair gene via polymerase chain reaction (PCR). The oligomers operatively linked to alkyl or steroid ligands and a 20 base pair reverse oligomer (1 uM) were used as PCR primers in a 100 uL reaction with 10 ng of double stranded 220 base pair gene template with 2× Fusion Flash High-Fidelity PCR Master Mix (ThermoFisher F548S). Thermocycling was performed at 98 C.° for 10 s, followed by 10 cycles of 98 C°, 1 s, 55 C°, 5 s, 72 C°, 10 s then followed by an additional protocol of 98 C.° for 10 s followed by 15 cycles of 98 C°, 1 s, 50 C°, 5 s, 72 C°, 10 s. PCR products of 220 base pair were confirmed via gel electrophoresis, purified with the QIAquick PCR Purification Kit (Qiagen) and DNA concentration was quantified via nanodrop A260 measurements.\nCompounds 18-24, prepared as described in Example 10 from the analogous 20 base pair oligomers were run on a reverse phase HPLC column, using an Agilent AdvanceBio Oligonucleotide column and acetonitrile/ammonium acetate gradient. […] Without wishing to be bound by theory, inclusion of appropriate standard compounds may provide useful surrogates of absolute values of log D. It should be also noted that chromLogD and Chrom20LogD may be determined by extensions of the above experiment."}
{"compound": "acetate", "resolution / elution by reversed phase HPLC": "eluting in the void volume"}
{"assay": "eLogD by shake flask method in aqueous buffer/octanol mixture", "conditions": "linear peptides, N terminal acetylated and C terminal amide; pH 7.4, octanol-water", "description": "“eLogD,” as used herein, refers to a determination of LogD by shake flask method in aqueous buffer/octanol mixture.\n“LogD(pH),” as used herein, refers to a distribution of a compound between aqueous buffer and octanol at a given pH. Unless otherwise stated, the pH is assumed to be 7.4 and be written as LogD."}
{"compound": "CC(=O)N[C@@H](CCCNC(=N)N)C(=O)N[C@@H](Cc1ccccc1)C(=O)N[C@@H](CC(C)C)C(N)=O", "note": "[RFL] (Ac-Arg-Phe-Leu-NH2)", "eLogD (7.4)": "−1.12"}
{"compound": "Ac-ALLGF-NH2 [ALLGF]", "eLogD (7.4)": 1.05}
{"compound": "Ac-YTGFL-NH2 [YTGFL]", "eLogD (7.4)": 0.57}
{"compound": "CC[C@H](C)[C@H](NC(C)=O)C(=O)N[C@@H](CCSC)C(=O)N[C@@H](Cc1ccccc1)C(N)=O", "note": "[IMF] (Ac-Ile-Met-Phe-NH2)", "eLogD (7.4)": 1.25}
{"compound": "CC[C@H](C)[C@H](NC(C)=O)C(=O)N[C@@H](Cc1ccccc1)C(=O)N[C@@H](C)C(N)=O", "note": "[IFA] (Ac-Ile-Phe-Ala-NH2)", "eLogD (7.4)": 0.46}
{"compound": "CC(=O)N[C@@H](Cc1c[nH]c2ccccc12)C(=O)NCC(=O)NCC(N)=O", "note": "[WGG] (Ac-Trp-Gly-Gly-NH2)", "eLogD (7.4)": "−0.80"}
{"compound": "CC(=O)N[C@@H](C)C(=O)N[C@@H](Cc1ccc(O)cc1)C(=O)N[C@@H](CC(C)C)C(N)=O", "note": "[AYL] (Ac-Ala-Tyr-Leu-NH2)", "eLogD (7.4)": "−0.06"}
{"compound": "CC[C@H](C)[C@H](NC(=O)[C@H](CCC(=O)O)NC(C)=O)C(=O)N[C@@H](Cc1ccccc1)C(N)=O", "note": "[EIF (D718)] (Ac-Glu-Ile-Phe-NH2)", "eLogD (7.4)": "−2.30"}
{"compound": "CC[C@H](C)[C@H](NC(=O)[C@H](CC(C)C)NC(=O)[C@H](CO)NC(C)=O)C(N)=O", "note": "[SLI] (Ac-Ser-Leu-Ile-NH2)", "eLogD (7.4)": "−0.06"}
